Experimental data published in PubChem BioAssay AID248 (DTP/NCI, 2004).
“And” between values parts separate entries of the source, which are not always exact repeats. Identical values can stand only once. Inconclusive results and toxic doses are left out. Rule as the data show it: active = T/C of 150% or more; inactive = T/C below 125%.

System: L1210 leukemia ip in BDF1 mice, survival T/C
Assay: NCI In Vivo Anticancer Drug Screen. Data for tumor model L1210 Leukemia (intraperitoneal) in B6D2F1 (BDF1) mice
Conditions: endpoint: mean survival time, higher = longer survival
Method in brief: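 Value reflects the ratio of survival in compound-treated mice to survival in vehicle-treated controls, with both groups carrying the same transplanted tumor.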

[1] = dose: 100.0 mg/kg/injection, schedule: Q01DX001 (ip), vehicle: carboxymethylcellulose (CMC)
[2] = dose: 200.0 mg/kg/injection, schedule: Q01DX001 (ip), vehicle: carboxymethylcellulose (CMC)
[3] = dose: 400.0 mg/kg/injection, schedule: Q01DX001 (ip), vehicle: carboxymethylcellulose (CMC)
[4] = dose: 100.0 mg/kg/injection, schedule: Q04DX003 (ip), vehicle: Klucel (hydroxypropylcellulose) (HPC)
[5] = dose: 200.0 mg/kg/injection, schedule: Q04DX003 (ip), vehicle: Klucel (hydroxypropylcellulose) (HPC)
[6] = dose: 400.0 mg/kg/injection, schedule: Q04DX003 (ip), vehicle: Klucel (hydroxypropylcellulose) (HPC)
[7] = dose: 100.0 mg/kg/injection, schedule: Q04DX003 (ip), vehicle: saline with Tween-80
[8] = dose: 200.0 mg/kg/injection, schedule: Q04DX003 (ip), vehicle: saline with Tween-80
[9] = dose: 400.0 mg/kg/injection, schedule: Q04DX003 (ip), vehicle: saline with Tween-80
[10] = dose: 100.0 mg/kg/injection, schedule: Q01DX009 (ip), vehicle: Klucel (hydroxypropylcellulose) (HPC)
[11] = dose: 200.0 mg/kg/injection, schedule: Q01DX009 (ip), vehicle: Klucel (hydroxypropylcellulose) (HPC)
[12] = dose: 400.0 mg/kg/injection, schedule: Q01DX009 (ip), vehicle: Klucel (hydroxypropylcellulose) (HPC)
[13] = dose: 100.0 mg/kg/injection, schedule: Q01DX001 (ip), vehicle: saline
[14] = dose: 200.0 mg/kg/injection, schedule: Q01DX001 (ip), vehicle: saline
[15] = dose: 400.0 mg/kg/injection, schedule: Q01DX001 (ip), vehicle: saline

Measured: T/C

O=C(CCl)OCCI
inactive: dose: 6.25 mg/kg/injection, schedule: Q01DX009 (ip), vehicle: acetone 97 % of control | dose: 12.5 mg/kg/injection, schedule: Q01DX009 (ip), vehicle: acetone 95 % of control | dose: 25.0 mg/kg/injection, schedule: Q01DX009 (ip), vehicle: acetone 90 % of control | dose: 25.0 mg/kg/injection, schedule: Q04DX003 (ip), vehicle: acetone 99 % of control | dose: 35.0 mg/kg/injection, schedule: Q01DX009 (ip), vehicle: acetone 98 % of control | dose: 55.0 mg/kg/injection, schedule: Q01DX009 (ip), vehicle: acetone 90 % of control | dose: 80.0 mg/kg/injection, schedule: Q01DX009 (ip), vehicle: acetone 97 % of control | dose: 100.0 mg/kg/injection, schedule: Q01DX001 (ip), vehicle: acetone 97 % of control

CCOC(=O)c1cc(Cl)c2c(ccc3ccccc32)n1
inactive: [1] 115 % of control | dose: 100.0 mg/kg/injection, schedule: Q01DX009 (ip), vehicle: carboxymethylcellulose (CMC) 92 % of control | dose: 100.0 mg/kg/injection, schedule: Q04DX002 (ip), vehicle: carboxymethylcellulose (CMC) 100 % of control and 103 % of control | dose: 100.0 mg/kg/injection, schedule: Q04DX003 (ip), vehicle: carboxymethylcellulose (CMC) 105 % of control | [2] 103 % of control | dose: 200.0 mg/kg/injection, schedule: Q01DX009 (ip), vehicle: carboxymethylcellulose (CMC) 92 % of control | dose: 200.0 mg/kg/injection, schedule: Q04DX002 (ip), vehicle: carboxymethylcellulose (CMC) 93 % of control and 97 % of control | dose: 200.0 mg/kg/injection, schedule: Q04DX003 (ip), vehicle: carboxymethylcellulose (CMC) 115 % of control | [3] 97 % of control | dose: 400.0 mg/kg/injection, schedule: Q01DX009 (ip), vehicle: carboxymethylcellulose (CMC) 98 % of control | dose: 400.0 mg/kg/injection, schedule: Q04DX002 (ip), vehicle: carboxymethylcellulose (CMC) 93 % of control and 95 % of control | dose: 400.0 mg/kg/injection, schedule: Q04DX003 (ip), vehicle: carboxymethylcellulose (CMC) 107 % of control

CS(=O)(=O)Oc1ccccc1N(S(C)(=O)=O)S(C)(=O)=O
inactive: dose: 100.0 mg/kg/injection, schedule: Q01DX001 (ip), vehicle: Klucel (hydroxypropylcellulose) (HPC) 107 % of control | [4] 107 % of control | dose: 200.0 mg/kg/injection, schedule: Q01DX001 (ip), vehicle: Klucel (hydroxypropylcellulose) (HPC) 110 % of control | [5] 107 % of control | dose: 400.0 mg/kg/injection, schedule: Q01DX001 (ip), vehicle: Klucel (hydroxypropylcellulose) (HPC) 104 % of control | [6] 102 % of control

Cc1ccc2c(c1)Oc1ccccc1S2
inactive: dose: 100.0 mg/kg/injection, schedule: Q04DX002 (ip), vehicle: saline with Tween-80 96 % of control | dose: 200.0 mg/kg/injection, schedule: Q04DX002 (ip), vehicle: saline with Tween-80 103 % of control | dose: 400.0 mg/kg/injection, schedule: Q04DX002 (ip), vehicle: saline with Tween-80 103 % of control

CC(C)CC(=O)OC1CCCCC1
inactive: [7] 106 % of control | [8] 101 % of control | [9] 95 % of control

CC(=O)Nc1ccc(Cl)cc1
inactive: dose: 50.0 mg/kg/injection, schedule: Q01DX001 (ip), vehicle: other 101 % of control | dose: 100.0 mg/kg/injection, schedule: Q01DX001 (ip), vehicle: other 98 % of control | dose: 200.0 mg/kg/injection, schedule: Q01DX001 (ip), vehicle: other 101 % of control | dose: 400.0 mg/kg/injection, schedule: Q01DX001 (ip), vehicle: other 106 % of control

CC(C)C1CCC(C(=O)O)CC1 (centres undefined)
inactive: [10] 102 % of control | [4] 96 % of control | [11] 95 % of control | [5] 100 % of control | [12] 97 % of control | [6] 103 % of control

CC(O)c1ccc2c(c1)Cc1ccccc1-2 (centres undefined)
inactive: dose: 50.0 mg/kg/injection, schedule: Q01DX001 (ip), vehicle: carboxymethylcellulose (CMC) 104 % of control | [1] 91 % of control | [2] 91 % of control | [3] 91 % of control

NC(=O)c1cc(NC(=O)c2ccc(C(=O)Nc3cc(C(N)=O)cc(C4=NCCN4)c3)cc2)cc(C2=NCCN2)c1
inactive: dose: 4.0 mg/kg/injection, schedule: Q01DX015 (ip), vehicle: methylcellulose (MC) 103 % of control | dose: 8.0 mg/kg/injection, schedule: Q01DX015 (ip), vehicle: methylcellulose (MC) 92 % of control | dose: 16.0 mg/kg/injection, schedule: Q01DX015 (ip), vehicle: methylcellulose (MC) 105 % of control | dose: 62.5 mg/kg/injection, schedule: Q01DX015 (ip), vehicle: methylcellulose (MC) 116 % of control | dose: 125.0 mg/kg/injection, schedule: Q01DX015 (ip), vehicle: methylcellulose (MC) 117 % of control

NC(Cc1cn(Cc2ccccc2)cn1)C(=O)O (centres undefined)
inactive: dose: 12.5 mg/kg/injection, schedule: Q04DX003 (ip), vehicle: saline 109 % of control | dose: 25.0 mg/kg/injection, schedule: Q04DX003 (ip), vehicle: saline 89 % of control | dose: 50.0 mg/kg/injection, schedule: Q04DX003 (ip), vehicle: saline 106 % of control

CNC(=O)NC1CCC(C)CC1 (centres undefined)
inactive: [13] 95 % of control | [14] 95 % of control | [15] 97 % of control

Cc1ccc(C(=O)c2ccccc2)cc1
inactive: [4] 97 % of control | [5] 104 % of control | [6] 92 % of control

CN(C)c1ccc(N=Cc2cc[n+](C)cc2)cc1
inactive: dose: 25.0 mg/kg/injection, schedule: Q01DX009 (ip), vehicle: saline 92 % of control | dose: 50.0 mg/kg/injection, schedule: Q01DX009 (ip), vehicle: saline 100 % of control | dose: 100.0 mg/kg/injection, schedule: Q04DX003 (ip), vehicle: saline 87 % of control

CC1(C)OC2C(COC(=O)Oc3ccccc3)OC(n3cnc4c(=O)[nH]c(N)nc43)C2O1 (centres undefined)
inactive: dose: 100.0 mg/kg/injection, schedule: Q01DX005 (ip), vehicle: saline 106 % of control | dose: 200.0 mg/kg/injection, schedule: Q01DX005 (ip), vehicle: saline 97 % of control

CN(C)c1ccc(C(=O)C(O)c2ccccc2)cc1 (centres undefined)
inactive: [10] 92 % of control | [4] 98 % of control | [11] 88 % of control | [5] 100 % of control | [12] 88 % of control | [6] 96 % of control

O=c1oc(-c2ccc3c(c2)OCO3)nc2ccccc12
inactive: dose: 50.0 mg/kg/injection, schedule: Q01DX009 (ip), vehicle: saline with Tween-80 94 % of control | dose: 100.0 mg/kg/injection, schedule: Q01DX009 (ip), vehicle: saline with Tween-80 94 % of control | dose: 200.0 mg/kg/injection, schedule: Q01DX009 (ip), vehicle: saline with Tween-80 94 % of control

COc1cc(I)cc(OC)c1OC
inactive: [7] 97 % of control | [8] 94 % of control | [9] 100 % of control

O=C(/C=C/C(=O)n1ccc2ccccc21)n1ccc2ccccc21
inactive: dose: 50.0 mg/kg/injection, schedule: Q01DX001 (ip), vehicle: saline 95 % of control | [13] 95 % of control | [14] 101 % of control | [15] 95 % of control

O=C(O)C(c1cc(Cl)co1)N1C(=O)c2ccccc2C1=O (centres undefined)
inactive: [4] 103 % of control | [5] 101 % of control | [6] 103 % of control
